Reference: patent publication US20240299562A1 (priority 2020, published 2024)
Read-outs that look alike come from different tables or passages of the source. Where a SMILES comes first, the peptide text is derived from it.

Experiments:
[1] = tested on: U87 MG glioblastoma cells subcutaneously implanted in nude NMRI mice; assay: In vivo activity of PhAc-ALLP-Dox on U87 MG glioblastoma xenograft; parameters: species or system mouse; conditions: 154 mg/kg iv, once per week
Protocol: The in vivo efficacy of PhAc-ALLP-Dox was tested in a mouse GBM model. U87 MG glioblastoma cells were subcutaneously (SC) implanted in nude NMRI mice. In total, 32 adult (9-10 weeks old) nude female NMRI mice (Janvier, France) were subjected to SC tumor cell grafting in the right flank. In total, 5×10^6 U87 MG cells resuspended in PBS plus Matrigel (1:1) were injected in 200 uL final volume. As soon as the tumors were palpable and reached the volume of 200 mm3 the treatment was started. At day zero, mice were randomly divided into 4 groups, based on the tumor volume, in order to have the following experimental sub-cohorts: • control group receiving the vehicle (PBS pH7.2) with a dose of 5 ml/kg, intravenously (iv), once per week (QW); • PhAc-ALLP-Dox (30 mg/kg iv, QW); • PhAc-ALGP-Dox (154 mg/kg iv, QW); • Dox (5 mg/kg iv, QW).
Treatments were performed once per week for a total of four tail vein administrations/injections (on days 1, 7, 14 and 21). One extra week of observation followed the active treatment phase. During the experiment, tumor volume was measured two times a week and was assessed three-dimensionally with a digital caliper (Mitutoyo, Illinois) using the following formula:
V=4/3π×[(d/2)^2×(D/2)], where d is the minor tumor axis and D is the major tumor axis.

[2] = tested on: HME-1 cells; assay: WST-1 cell viability, normal HME-1 cells; format: cell-based, human; conditions: for IC50: HME-1 normal cells, 72 hrs continuous drug exposure, WST-1 (Table 1), read-out: Absolute IC50
Protocol: (§1) All commercial cell lines were purchased at ATCC (LGC Standards SARL, France). Cells were seeded in 96-well plates according to their optimal seeding density, varying between 5.000 and 10.000 cells/well. After attachment overnight, 10-point serial titrations (1:5) were prepared in their equivalent complete media as recommended by ATCC, starting from the 10 mM stock solutions. For doxorubicin comprising prodrugs dilutions started from 100 μM, while for the parent compound doxorubicin dilutions started at 10 μM. […] Seventy-two hours later, compounds were removed together with the supernatants and cells were washed once with PBS to remove excess drugs.
(§2) The WST-1 assay for cell proliferation and viability (Roche, Switzerland) was performed according to manufacturer's protocol. Absorbances were measured at 4 hrs using a Perkin Elmer Ensight multiplate reader, equipped with Kaleido 2.0 software (Perkin Elmer, USA). Cell viability was expressed as a percentage compared to non-treated cells. Absolute IC50 values were extrapolated from a non-linear fitting following the Sigmoidal-4PL regression method using Graphpad Prism 7.0. Likewise, maximal efficacy was determined as 100% minus the cell viability determined when cells are incubated in the presence of a compound. For instance, if 20% of the cells survive incubation in the presence of a compound, then the maximal efficacy of that compound is 100%-20%=80%.
(§3) Selectivity indices (SI) were defined as the ratio of the concentration of drug required to kill 50% of the cells in normal (control, non-cancer) cells, divided by the concentration required to exert the same efficacy in tumor cells: SI=IC50 (control cell)/IC50 (cancer cell), or SI=^HME-1IC50/cancer IC50.

[3] = WST-1 cell viability, normal HME-1 cells; format: cell-based, human; conditions: human; HME-1 normal cells; 72 hrs, WST-1 (Table 2); read-out: Maximal efficacy, cytotoxicity (%) at 100 μM
Protocol: as §1, §2, §3

[4] = tested on: MDA-MB-231 cells; assay: WST-1 cell viability, MDA-MB-231 triple negative breast cancer cells; format: cell-based
Protocol: as §1, §2, §3

[5] = tested on: LS 174T cells; assay: WST-1 cell viability, LS 174T colorectal cancer cells; format: cell-based
Protocol: as §1, §2, §3

[6] = tested on: NCI-H292 cells; assay: WST-1 cell viability, NCI-H292 lung cancer cells; format: cell-based
Protocol: as §1, §2, §3

[7] = tested on: cancer cell lines; assay: In vitro potency and selectivity across a variety of cancer indications (WST-1); format: cell-based; conditions: 72 hrs
Protocol: as §1
as §2, with “For instance, if 20% of the cells survive incubation in the presence of a compound, then the maximal efficacy of that compound is 100%-20%=80%.” left out

[8] = tested on: A2058 cells; assay: WST-1 cell viability, A2058 melanoma cells; format: cell-based
Protocol: as §1, §2, §3

[9] = tested on: MDA-MB-468 cells; assay: WST-1 cell viability, MDA-MB-468 triple negative breast cancer cells; format: cell-based
Protocol: as §1, §2, §3

[10] = tested on: DU145 cells; assay: WST-1 cell viability, DU145 prostate cancer cells; format: cell-based
Protocol: as §1, §2, §3

[11] = tested on: A-172 cells; assay: WST-1 cell viability, A-172 glioblastoma cells; format: cell-based
Protocol: as §1, §2, §3

[12] = tested on: U-87 MG cells; assay: WST-1 cell viability, U-87 MG glioblastoma cells; format: cell-based
Protocol: as §1, §2, §3

[13] = tested on: HCT-116 cells; assay: WST-1 cell viability, HCT-116 colorectal cancer cells; format: cell-based
Protocol: as §1, §2, §3

[14] = tested on: A2780 Cp cells; assay: WST-1 cell viability, A2780 CpR (cisplatin resistant) ovarian cancer cells; format: cell-based
Protocol: as §1, §2, §3

[15] = tested on: NCI-1299 cells; assay: WST-1 cell viability, NCI-H1299 lung cancer cells; format: cell-based
Protocol: as §1, §2, §3

[16] = tested on: A2780 cells; assay: WST-1 cell viability, A2780 ovarian cancer cells; format: cell-based
Protocol: as §1, §2, §3

[17] = tested on: MIA PaCa-2 cells; assay: WST-1 cell viability, MIA PaCa-2 pancreatic cancer cells; format: cell-based
Protocol: as §1, §2, §3

[18] = in mice; cited from earlier work
[19] = chronic treatment in rats, doses up to 8-fold higher; cited from earlier work
[20] = cited from earlier work
[21] = in dogs; cited from earlier work

SMILES: COc1cccc2c1C(=O)c1c(O)c3c(c(O)c1C2=O)C[C@@](O)(C(=O)CO)C[C@@H]3O[C@H]1C[C@H](NC(=O)[C@@H]2CCCN2C(=O)CNC(=O)[C@H](CC(C)C)NC(=O)[C@H](C)NC(=O)CP(=O)(O)O)[C@H](O)[C@H](C)O1 [PhAc-ALGP-Dox, reference compound] (HELM PEPTIDE1{[O=C(CP(=O)(O)O)[*:2]].A.L.G.P.[COc1cccc2c1C(=O)c1c(O)c3c(c(O)c1C2=O)C[C@@](O)(C(=O)CO)C[C@@H]3O[C@H]1C[C@H](N[*:1])[C@H](O)[C@H](C)O1]}$$$$V2.0)
- Tumor growth [1]: significantly reduced tumor growth
- IC50 [2]: > 100 µM
- cytotoxicity at 72 h, 100 µM [3]: 31.2%

SMILES: COc1cccc2c1C(=O)c1c(O)c3c(c(O)c1C2=O)C[C@@](O)(C(=O)CO)C[C@@H]3O[C@H]1C[C@H](NC(=O)[C@@H]2CCCN2C(=O)[C@H](CCCCN)NC(=O)[C@@H]2CCCN2C(=O)[C@H](C)NC(=O)CP(=O)(O)O)[C@H](O)[C@H](C)O1 [PhAc-APKP-Dox] (HELM PEPTIDE1{[O=C(CP(=O)(O)O)[*:2]].A.P.K.P.[COc1cccc2c1C(=O)c1c(O)c3c(c(O)c1C2=O)C[C@@](O)(C(=O)CO)C[C@@H]3O[C@H]1C[C@H](N[*:1])[C@H](O)[C@H](C)O1]}$$$$V2.0)
- SI = HME-1 IC50/cancer IC50 ([4]; MDA-MB-231 (TNBC) vs HME-1 (Table 3)): 8.49
- IC50 ([4]; MDA-MB-231 (TNBC), 72 hrs, WST-1 (Table 1), read-out: Absolute IC50): 2.13 µM
- Maximal efficacy, cytotoxicity (%) at 100 μM ([4]; MDA-MB-231 (TNBC), 72 hrs, WST-1 (Table 2)): 89.12%
- SI = HME-1 IC50/cancer IC50 ([5]; LS 174T (CrC) vs HME-1 (Table 3)): 1.23
- IC50 ([5]; LS 174T (CrC), 72 hrs, WST-1 (Table 1), read-out: Absolute IC50): 14.7 µM
- Maximal efficacy, cytotoxicity (%) at 100 μM ([5]; LS 174T (CrC), 72 hrs, WST-1 (Table 2)): 53.72%
- SI = HME-1 IC50/cancer IC50 ([6]; NCI-H292 (NSCLC) vs HME-1 (Table 3)): 0.70
- IC50 ([6]; NCI-H292 (NSCLC), 72 hrs, WST-1 (Table 1), read-out: Absolute IC50): 25.9 µM
- Maximal efficacy, cytotoxicity (%) at 100 μM ([6]; NCI-H292 (NSCLC), 72 hrs, WST-1 (Table 2)): 63.26%
- Potency range against cancer cells [7]: within the micromolar range
- SI = HME-1 IC50/cancer IC50 ([8]; A2058 (Melanoma) vs HME-1 (Table 3)): 3.69
- IC50 ([8]; A2058 (Melanoma), 72 hrs, WST-1 (Table 1), read-out: Absolute IC50): 4.9 µM
- Maximal efficacy, cytotoxicity (%) at 100 μM ([8]; A2058 (Melanoma), 72 hrs, WST-1 (Table 2)): 96.27%
- SI = HME-1 IC50/cancer IC50 ([9]; MDA-MB-468 (TNBC) vs HME-1 (Table 3)): 4.02
- IC50 ([9]; MDA-MB-468 (TNBC), 72 hrs, WST-1 (Table 1), read-out: Absolute IC50): 4.49 µM
- Maximal efficacy, cytotoxicity (%) at 100 μM ([9]; MDA-MB-468 (TNBC), 72 hrs, WST-1 (Table 2)): 91.83%
- SI = HME-1 IC50/cancer IC50 ([10]; DU145 (PrC) vs HME-1 (Table 3)): 2.02
- IC50 ([10]; DU145 (PrC), 72 hrs, WST-1 (Table 1), read-out: Absolute IC50): 8.93 µM
- Maximal efficacy, cytotoxicity (%) at 100 μM ([10]; DU145 (PrC), 72 hrs, WST-1 (Table 2)): 91.93%
- SI = HME-1 IC50/cancer IC50 ([11]; A-172 (GBM) vs HME-1 (Table 3)): 0.49
- IC50 ([11]; A-172 (GBM), 72 hrs, WST-1 (Table 1), read-out: Absolute IC50): 36.9 µM
- Maximal efficacy, cytotoxicity (%) at 100 μM ([11]; A-172 (GBM), 72 hrs, WST-1 (Table 2)): 91.93%
- SI = HME-1 IC50/cancer IC50 ([12]; U-87 MG (GBM) vs HME-1 (Table 3)): 1.46
- IC50 ([12]; U-87 MG (GBM), 72 hrs, WST-1 (Table 1), read-out: Absolute IC50): 12.4 µM
- Maximal efficacy, cytotoxicity (%) at 100 μM ([12]; U-87 MG (GBM), 72 hrs, WST-1 (Table 2)): 88.38%
- SI = HME-1 IC50/cancer IC50 ([13]; HCT-116 (CrC) vs HME-1 (Table 3)): 1.47
- IC50 ([13]; HCT-116 (CrC), 72 hrs, WST-1 (Table 1), read-out: Absolute IC50): 12.3 µM
- Maximal efficacy, cytotoxicity (%) at 100 μM ([13]; HCT-116 (CrC), 72 hrs, WST-1 (Table 2)): 81.05%
- SI = HME-1 IC50/cancer IC50 ([14]; A2780 Cp (OvC) vs HME-1 (Table 3)): 1.62
- Maximal efficacy, cytotoxicity (%) at 100 μM ([14]; A2780 Cp (OvC), 72 hrs, WST-1 (Table 2)): 74.61%
- IC50 ([14]; A2780 Cp (OvC, cisplatin resistant), 72 hrs, WST-1 (Table 1), read-out: Absolute IC50): 11.2 µM
- SI = HME-1 IC50/cancer IC50 ([2]; HME-1 normal cells against themselves (Table 3)): 1.00
- IC50 [2]: 18.1 µM
- cytotoxicity at 72 h, 100 µM [3]: 81.5%
- SI = HME-1 IC50/cancer IC50 ([15]; NCI-1299 (NSCLC) vs HME-1 (Table 3)): 1.72
- IC50 ([15]; NCI-1299 (NSCLC), 72 hrs, WST-1 (Table 1), read-out: Absolute IC50): 10.5 µM
- Maximal efficacy, cytotoxicity (%) at 100 μM ([15]; NCI-1299 (NSCLC), 72 hrs, WST-1 (Table 2)): 75.52%
- SI = HME-1 IC50/cancer IC50 ([16]; A2780 (OvC) vs HME-1 (Table 3)): 21.13
- IC50 ([16]; A2780 (OvC), 72 hrs, WST-1 (Table 1), read-out: Absolute IC50): 0.86 µM
- Maximal efficacy, cytotoxicity (%) at 100 μM ([16]; A2780 (OvC), 72 hrs, WST-1 (Table 2)): 87.34%
- SI = HME-1 IC50/cancer IC50 ([17]; MIA PaCa-2 (PaC) vs HME-1 (Table 3)): 0.40
- IC50 ([17]; MIA PaCa-2 (PaC), 72 hrs, WST-1 (Table 1), read-out: Absolute IC50): 45.7 µM
- Maximal efficacy, cytotoxicity (%) at 100 μM ([17]; MIA PaCa-2 (PaC), 72 hrs, WST-1 (Table 2)): 77.65%

SMILES: COc1cccc2c1C(=O)c1c(O)c3c(c(O)c1C2=O)CC(O)(C(=O)CO)CC3OC1CC(NC(=O)C(CC(C)C)NC(=O)C(C)NC(=O)C(CC(C)C)NC(=O)CCNC(=O)CCC(=O)O)C(O)C(C)O1 [Suc-βALAL-dox, N-succinyl-beta-alanyl-L-leucyl-L-alanyl-L-leucyl-doxorubicin]
- Times less toxic compared with unconjugated doxorubicin [18]: about 5 times
- Cardiotoxicity compared with Dox [19]: significantly less cardiotoxic
- Clinical benefit, share of evaluable patients ([20]; phase I clinical study (Delord et al., unpublished)): 59%
- Cardiac adverse events ([20]; phase I clinical study, even at very high cumulative doses (2750 mg/m^2)): No drug-related, severe cardiac adverse events were reported
- Dose at which myelotoxicity occurred compared with free doxorubicin ([20]; phase I clinical study): three times higher doses
- Times less toxic compared with unconjugated doxorubicin [21]: 3 times
